Activity calls are given as the source filed them.
Columns and labels:
[1] = biological target: T1, Tyrosine-protein phosphatase non-receptor type 7 (Homo sapiens, UniProt P35236); experiment: redox-active compounds inhibiting HePTP phosphatase – biochemical, fluorescence, mechanism study (AID 2068); assay type: functional
T1 sequence (P35236 whole entry): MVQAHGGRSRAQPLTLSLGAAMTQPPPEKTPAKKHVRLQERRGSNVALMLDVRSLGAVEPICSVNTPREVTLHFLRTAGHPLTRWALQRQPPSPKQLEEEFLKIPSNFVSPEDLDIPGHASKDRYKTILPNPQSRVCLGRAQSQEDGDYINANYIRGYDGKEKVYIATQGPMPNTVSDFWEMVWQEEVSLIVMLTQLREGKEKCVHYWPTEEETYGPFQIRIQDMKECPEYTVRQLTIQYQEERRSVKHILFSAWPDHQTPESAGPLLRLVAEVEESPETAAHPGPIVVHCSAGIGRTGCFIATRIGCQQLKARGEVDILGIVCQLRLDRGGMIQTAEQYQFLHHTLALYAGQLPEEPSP

[2] = biological target: T2, G-protein coupled receptor 35 (Homo sapiens, UniProt Q9HC97); experiment: SAR analysis of Antagonists of the GPR35 Receptor using an Image-Based Assay - Set 5. [Related pubchem assays (depositor defined):AID2058, AID2079]; assay type: functional
T2 sequence (Q9HC97 whole entry): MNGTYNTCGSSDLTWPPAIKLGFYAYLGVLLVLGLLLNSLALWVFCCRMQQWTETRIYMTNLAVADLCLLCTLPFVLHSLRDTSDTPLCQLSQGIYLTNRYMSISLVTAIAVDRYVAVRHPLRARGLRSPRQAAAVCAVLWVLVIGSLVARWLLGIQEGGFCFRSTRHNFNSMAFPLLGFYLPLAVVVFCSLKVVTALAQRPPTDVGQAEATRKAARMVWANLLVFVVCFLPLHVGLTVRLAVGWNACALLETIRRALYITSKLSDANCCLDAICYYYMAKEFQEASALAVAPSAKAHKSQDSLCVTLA

[3] = biological target: T2, G-protein coupled receptor 35; experiment: SAR Analysis for the identification of Selective Antagonists of ERK1/2 Activity in GPR35-Overexpressing U2OS Cells - Set 2. [Related pubchem assays (depositor defined):AID2058, AID2079]; assay type: functional, cell-based
[4] = biological target: G-protein coupled receptor 55 (Homo sapiens, UniProt Q9Y2T6); experiment: SAR Analysis of Selective Antagonists of GPR55 using an Image-Based Assay - Set 3. [Related pubchem assays (depositor defined):AID2058, AID2079]; assay type: functional
Sequence of G-protein coupled receptor 55 (Q9Y2T6 whole entry): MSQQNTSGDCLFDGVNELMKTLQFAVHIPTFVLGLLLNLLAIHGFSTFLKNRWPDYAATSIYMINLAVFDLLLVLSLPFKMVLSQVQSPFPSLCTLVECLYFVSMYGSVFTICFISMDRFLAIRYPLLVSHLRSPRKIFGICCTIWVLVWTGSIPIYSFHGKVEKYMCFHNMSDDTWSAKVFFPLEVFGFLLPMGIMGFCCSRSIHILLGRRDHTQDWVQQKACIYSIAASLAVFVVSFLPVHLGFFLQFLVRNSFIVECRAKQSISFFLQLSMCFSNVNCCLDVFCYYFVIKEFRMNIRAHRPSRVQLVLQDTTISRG

[5] = biological target: T3, Coagulation factor XII (Homo sapiens, UniProt P00748); experiment: Factor XIIa Dose Response Confirmation from Single Well HTS. [Related pubchem assays (depositor defined):AID701]; assay type: functional
T3 sequence (P00748 whole entry): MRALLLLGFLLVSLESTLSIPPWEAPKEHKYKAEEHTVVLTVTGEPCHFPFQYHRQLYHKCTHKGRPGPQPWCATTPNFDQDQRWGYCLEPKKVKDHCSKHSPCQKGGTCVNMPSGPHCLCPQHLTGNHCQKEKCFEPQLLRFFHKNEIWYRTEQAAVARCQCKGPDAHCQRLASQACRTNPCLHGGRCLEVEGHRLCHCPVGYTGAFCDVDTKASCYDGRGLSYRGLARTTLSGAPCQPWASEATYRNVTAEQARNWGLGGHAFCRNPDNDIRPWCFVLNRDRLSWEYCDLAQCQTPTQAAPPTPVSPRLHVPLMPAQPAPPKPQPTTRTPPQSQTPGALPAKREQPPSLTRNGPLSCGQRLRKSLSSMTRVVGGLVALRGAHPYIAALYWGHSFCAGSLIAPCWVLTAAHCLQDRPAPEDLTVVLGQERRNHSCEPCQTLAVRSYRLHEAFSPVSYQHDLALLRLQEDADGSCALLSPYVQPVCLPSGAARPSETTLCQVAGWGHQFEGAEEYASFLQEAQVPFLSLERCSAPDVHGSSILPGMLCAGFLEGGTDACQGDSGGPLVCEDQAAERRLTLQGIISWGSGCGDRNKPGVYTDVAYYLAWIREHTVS

[6] = biological target: T3, Coagulation factor XII; experiment: activated coagulation factor XII inhibitor potency, concentration-effect curve, cell-free (AID 716); assay type: functional
[7] = biological target: T4, Hexokinase HKDC1 (Homo sapiens, UniProt Q2TB90); experiment: inhibition of HKDC1 glucose phosphorylation – biochemical, W721R variant, dose response (AID 504729); assay type: functional
T4 sequence (Q2TB90 whole entry): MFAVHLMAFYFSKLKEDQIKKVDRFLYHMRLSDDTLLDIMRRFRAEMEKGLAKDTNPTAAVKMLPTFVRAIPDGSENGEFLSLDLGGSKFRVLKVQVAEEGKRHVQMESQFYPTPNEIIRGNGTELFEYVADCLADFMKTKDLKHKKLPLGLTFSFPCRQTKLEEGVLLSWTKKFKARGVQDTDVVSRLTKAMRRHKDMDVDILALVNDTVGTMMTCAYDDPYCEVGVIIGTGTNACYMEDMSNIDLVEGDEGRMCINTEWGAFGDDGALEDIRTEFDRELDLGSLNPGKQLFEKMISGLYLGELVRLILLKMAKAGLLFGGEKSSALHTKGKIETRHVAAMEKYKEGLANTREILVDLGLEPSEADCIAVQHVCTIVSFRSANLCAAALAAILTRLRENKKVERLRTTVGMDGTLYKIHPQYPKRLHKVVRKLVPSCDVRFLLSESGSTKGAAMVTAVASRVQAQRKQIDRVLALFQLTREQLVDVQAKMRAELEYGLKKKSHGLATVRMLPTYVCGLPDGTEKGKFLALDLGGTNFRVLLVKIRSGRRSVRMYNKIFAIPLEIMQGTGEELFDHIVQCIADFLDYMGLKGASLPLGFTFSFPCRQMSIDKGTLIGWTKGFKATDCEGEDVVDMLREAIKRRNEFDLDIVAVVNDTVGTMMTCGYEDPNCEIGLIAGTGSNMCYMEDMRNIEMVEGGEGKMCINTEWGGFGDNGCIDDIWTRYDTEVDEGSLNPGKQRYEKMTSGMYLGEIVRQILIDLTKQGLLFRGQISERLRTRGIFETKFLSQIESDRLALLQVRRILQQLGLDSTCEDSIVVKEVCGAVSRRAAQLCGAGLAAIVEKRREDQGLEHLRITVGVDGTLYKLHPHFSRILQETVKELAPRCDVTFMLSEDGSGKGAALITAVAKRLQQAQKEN

[8] = biological target: T5, Rac GTPase-activating protein 1 (Homo sapiens, UniProt Q9H0H5); experiment: blockers of MgcRacGAP-driven Rac1 GTP hydrolysis – biochemical, ADP Hunter fluorescence, primary and confirmatory, confirmation (AID 624330); assay type: functional
T5 sequence (Q9H0H5 whole entry): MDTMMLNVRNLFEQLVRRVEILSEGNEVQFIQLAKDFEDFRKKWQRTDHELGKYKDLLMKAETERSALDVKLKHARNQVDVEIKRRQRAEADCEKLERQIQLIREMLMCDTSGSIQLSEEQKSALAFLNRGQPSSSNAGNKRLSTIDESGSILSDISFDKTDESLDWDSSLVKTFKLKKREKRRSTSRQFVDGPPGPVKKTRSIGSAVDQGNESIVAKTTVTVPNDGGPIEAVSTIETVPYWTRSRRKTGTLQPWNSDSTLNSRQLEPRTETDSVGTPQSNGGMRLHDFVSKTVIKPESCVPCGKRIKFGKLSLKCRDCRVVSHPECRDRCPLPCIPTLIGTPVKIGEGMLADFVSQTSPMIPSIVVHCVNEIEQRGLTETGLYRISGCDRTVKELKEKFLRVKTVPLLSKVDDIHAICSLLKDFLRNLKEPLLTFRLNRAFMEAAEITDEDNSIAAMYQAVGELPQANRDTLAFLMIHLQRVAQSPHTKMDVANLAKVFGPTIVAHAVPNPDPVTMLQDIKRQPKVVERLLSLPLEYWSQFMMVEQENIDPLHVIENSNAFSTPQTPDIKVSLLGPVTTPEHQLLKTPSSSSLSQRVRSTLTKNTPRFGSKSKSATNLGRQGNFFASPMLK

[9] = biological target: T6, Hexokinase-1 (Homo sapiens, UniProt P19367); experiment: HK1 enzyme activation by HKDC1 hits – biochemical, selectivity assay for HKDC1 activator project, dose response (AID 504762); assay type: functional
T6 sequence (P19367 whole entry): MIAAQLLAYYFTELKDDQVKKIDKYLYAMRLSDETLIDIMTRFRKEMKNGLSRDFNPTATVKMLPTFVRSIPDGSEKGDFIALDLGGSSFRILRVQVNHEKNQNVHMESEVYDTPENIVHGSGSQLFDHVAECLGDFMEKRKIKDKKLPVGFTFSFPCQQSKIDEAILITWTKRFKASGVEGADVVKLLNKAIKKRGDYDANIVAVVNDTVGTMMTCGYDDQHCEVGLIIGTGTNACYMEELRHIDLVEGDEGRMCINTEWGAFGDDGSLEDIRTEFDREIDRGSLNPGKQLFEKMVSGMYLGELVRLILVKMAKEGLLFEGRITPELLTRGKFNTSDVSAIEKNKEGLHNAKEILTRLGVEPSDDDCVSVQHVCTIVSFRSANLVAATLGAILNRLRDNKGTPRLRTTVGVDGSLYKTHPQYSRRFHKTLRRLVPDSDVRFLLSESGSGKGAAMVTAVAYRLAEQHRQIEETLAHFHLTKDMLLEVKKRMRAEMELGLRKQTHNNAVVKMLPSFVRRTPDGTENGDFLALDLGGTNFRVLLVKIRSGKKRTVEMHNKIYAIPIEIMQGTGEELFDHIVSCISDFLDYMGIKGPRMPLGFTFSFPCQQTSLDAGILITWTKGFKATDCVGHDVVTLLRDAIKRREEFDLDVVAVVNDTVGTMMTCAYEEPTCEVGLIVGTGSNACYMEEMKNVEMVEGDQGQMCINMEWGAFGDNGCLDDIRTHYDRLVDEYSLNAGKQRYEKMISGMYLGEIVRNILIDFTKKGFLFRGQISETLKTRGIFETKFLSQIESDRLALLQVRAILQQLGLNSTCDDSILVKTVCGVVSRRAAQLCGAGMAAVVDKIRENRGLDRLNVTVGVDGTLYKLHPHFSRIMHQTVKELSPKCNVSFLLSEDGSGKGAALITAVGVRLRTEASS

[10] = biological target: Nonstructural protein 1 (Influenza A virus, UniProt Q194T2); assay type: functional, Influenza A virus (A/California/07/2009(H1N1))
Sequence of Nonstructural protein 1 (Q194T2 whole entry): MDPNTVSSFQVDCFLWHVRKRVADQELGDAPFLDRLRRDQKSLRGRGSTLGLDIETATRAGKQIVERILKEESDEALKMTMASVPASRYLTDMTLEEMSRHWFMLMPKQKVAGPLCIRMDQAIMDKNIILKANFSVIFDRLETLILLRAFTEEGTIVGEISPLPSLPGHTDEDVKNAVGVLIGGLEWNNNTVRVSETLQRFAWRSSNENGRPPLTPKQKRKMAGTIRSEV

Which IC50 [1] does the source give for `O=C(Nc1ccc2nc(-c3ccco3)c(-c3ccco3)nc2c1)NC1CCCC1` here?
Its IC50 is 1.1 µM (active).

With `COC(=O)c1cnn(-c2ccc(Cl)cc2)c1/C=N/NC(=S)Nc1ccccc1` as the molecule, how does the IC50 [2] read?
The IC50 was 0.211 µM (active).

What about the IC50 [3] of the same molecule?
The IC50 was 21.8 µM (inactive).

What about the IC50 [4] of the same molecule?
Its IC50 is > 32 µM (inactive).

With `Cc1ccc(C(=O)n2nnc3ccccc32)cc1` as the molecule, how does the IC50 [5] read?
Its IC50 is 2.29 µM (active).

`CCCCC1(CC)C(=O)NC(=O)N=C1Nc1ccc(OC)cc1` (stereo not given) was tested. Which IC50 [6] did it give?
The IC50 was > 50 µM (inactive).

What does the source list for `Oc1ccc(/C=N/NC(=S)Nc2cccnc2)c(O)c1`?
IC50 [7]: > 80 µM (inactive); IC50 [8]: 40.5 µM (active); EC50 [9]: > 80 µM (inactive); IC50 [10]: 1.82 µM (active)
